# Test results as given in patent US20230381170A1, “METHOD FOR TREATING ALS/FTD THROUGH DEGRADATION OF RNA REPEAT EXPANSION” (University of Florida Research Foundation, Incorporated, priority 2020, published 2023).
# Like-named read-outs stand apart in the source and are kept apart here.
# How the values were obtained:
# [1] = test system: d(G4C2)8; test: Biolayer interferometry (BLI) binding; details: for Kd: BLI
# Protocol: (§1) Biolayer Interferometry (BLI). BLI studies were performed similarly as previously described (12) using an Octet RED96. Briefly, 5′-biotinylated nucleic acids were folded by heating at 95° C. for 4 min in 10 mM sodium phosphate buffer, pH 7, followed by slowly cooling to room temperature. Then, to the folded RNA were added the following components: 1.386 mL 1×DPBS (21-031-CV, Corning), 180 μL freshly prepared 1% (w/v) BSA, 36 μL 1% (v/v) Tween-20, and 18 μL DMSO (1% final concentration) in a final volume of 1.8 mL. The final concentration of RNA was 0.5 μM. Separately, serial dilutions of the compound of interest were prepared in the same buffer.
# (§2) Streptavidin sensors (SA, #18-5019, ForteBio) were equilibrated with buffer for 10 min at room temperature using 96-well black microplate (Greiner; Catalog #: 655209). The following time intervals were used during data acquisition (30° C. with shaking at 1000 rpm): baseline step, 180 s; loading of RNA, 900 s; washing, 180 s; association of compound, 1800 s; and dissociation of compound, 1800 s. The resulting curves were analyzed and processed using Octet Data Analysis software version 9.1 by subtracting the response of the sensors recorded upon incubation with solutions containing compound and no RNA (parallel reference). The data were then fitted assuming reversible binding using the entire time interval for association and dissociation using either 1:1 or the 2:1 heterogeneous binding curve fitting model. The reported Kd,n, kon,n and koff,n values represent the average of two independent experiments.
# [2] = test system: r(G2C2)10; test: Biolayer interferometry (BLI) binding
# Protocol: as §1, §2
# [3] = test system: r(G2C4)8; test: Biolayer interferometry (BLI) binding
# Protocol: as §1, §2
# [4] = test system: c9 patient-derived iPSCs; test: Cell viability; format: cell-based, human; details: 1-1000 nM
# Protocol: Cell Viability. Lymphoblastoid cells were seeded in 96-well plate (˜10^4 cells/well) overnight and then treated with compounds for 48 h. The cell viability was measured by CellTiter-Fluor™ Cell Viability Assay per the manufacturer's protocol. For iPSCs, cells (diluted 1:4 after harvesting from a 100 mm dish) were seeded in Matrigel-coated 24-well plate. After 24 h, the compounds were added for 48 h and cell viability was measured by AlamarBlue™ Cell Viability Reagent (DAL1025, Thermo Fisher Scientific) per the manufacturer's protocol.
# [5] = test system: C9orf72 intron 1 harboring r(G4C2)exp; test: C9orf72 intron 1 RT-qPCR in patient-derived LCLs; format: cell-based, human; details: disease-affected LCLs
# Protocol: Measuring Levels of C9orf72 and C9orf72 Variants by RT-qPCR. LCLs were seeded in 6-well plate (˜10^6 cells in 2 mL of growth medium) and incubated overnight at 37° C. Cells were then treated with various concentrations of compound for 24 h or with G4C2-ASO and Control-ASO (100 nM), delivered by transfection with Lipofectamine RNAiMax. RNA was extracted as described above and the expression of C9orf72 variants was determined by RT-qPCR. […] For compound treatment well, medium change was performed with fresh compound every 3-4 days. RNA was extracted as described above and the expression of C9orf72 variants was determined by RT-qPCR.
# [6] = test system: transcriptome of iPSCs derived from healthy donors; test: RNA-seq in iPSCs from healthy donors; format: cell-based, human; details: 50 nM
# [7] = test system: C9orf72 transcripts; test: C9orf72 variants by RT-qPCR in brain of +/+PWR500 C9orf72 BAC mice; format: in vivo, mouse; details: three weeks
# Protocol: Therapeutic Efficacy in a c9ALS/FD mouse model. All animal studies were completed as approved by the Scripps Florida Institutional Animal Care and Use Committee. A total of 24 mice (12+/+PWR500 [7 Male and 5 Female] and 12 WT [6 Male and 6 Female]) mice, age- and gender-matched and ranging in age from 18-22 weeks old were used in therapeutic efficacy studies (Table 6). Mice were anesthetized by intraperitoneal (i.p.) injection of 10 mg/mL Ketamine:1 mg/mL Xylazine solution. Intracerebroventricular (ICV) stereotactic injections of 10 μL of 7 (33 nmol) were administered into the right ventricle using the following coordinates: 0.2 mm posterior and 1.0 mm lateral to the right from the bregma and 3 mm deep. Mice were treated with 7 or vehicle consisting of 1% DMSO in Saline. Three weeks post-treatment, mice were euthanized, and tissue was harvested for study.
# Measuring C9orf72 Variants by RT-qPCR. Postmortem brain tissue was harvested and sliced along the midline. The left hemisphere was frozen for RNA and protein analysis. The left hemisphere of each brain was homogenized in 300 μL ice cold Tris-EDTA buffer with 2× protease inhibitors. 150 μL of homogenized tissue was used for RNA extraction. 450 μL of triazol LS was added to the homogenized tissue and centrifuged for 15 min at 16,000 rpm. Following centrifugation, supernatant was collected and an equal volume (600 μL) of 100% ethanol was added and mixed thoroughly. RNA was purified using a Direct-zol RNA Kit (Zymo Research) per the manufacturer's protocol. RT-qPCR was performed as described above. Expression levels of mRNAs were normalized to mouse (3-actin. See Table 2 for a list of primers. Statistical analysis was measured using an unpaired t-test with Welch's correction.
# [8] = test system: Nup98; test: Nup98 by structured illumination microscopy in patient-derived iPSNs; format: cell-based, human; details: 50 nM
# Protocol: Nuclei Isolation and Super Resolution Structured Illumination Microscopy. iPSC-derived spinal neurons were generated according to the previously published diMNs protocol (37). On day 15 and 18 of differentiation, […] G4C2 repeat-targeting ASO was added to media as previously described (59). For compound treatment, 50 nM 7 was added to media on days 15, 18, 21, 24, 27, and 30 of differentiation. On day 32 of differentiation, nuclei isolation was performed using the Nuclei Pure Prep Nuclei Isolation Kit (Sigma Aldrich) as previously described (68). Isolated nuclei were spun onto collagen coated slides and immunostained following standard protocols as previously described (68). Primary antibodies: 1:250 rat anti-Nup98 (Abcam), 1:500 chicken anti-NeuN (Millipore); secondary antibodies: […] Alexa 488 (Invitrogen), goat anti-chicken Alexa 647 (Invitrogen). NeuN positive nuclei were imaged by super resolution structured illumination microscopy (SIM) using a Zeiss ELYRA S.1 as previously described (14). Next, 50 nuclei per iPSC line/treatment group were analyzed using the 3D suite plugin in FIJI. The average number of spots from the 50 nuclei for each cell line and treatment group was used for statistical analyses. […] Quantification is presented as violin plots to represent the full variability of all nuclei analyzed.
SMILES,selective for r(G4C2)8 over d(G4C2)8 [1],"Kd ([1]; read-out: Kd, 1)","Kd ([1]; read-out: Kd, 2)",selective for r(G4C2)8 over r(G2C2)10 [2],"Kd ([2]; BLI, read-out: Kd, 1)",selective for r(G4C2)8 over r(G2C4)8 [3],"Kd ([3]; BLI, read-out: Kd, 1)",toxicity [4],C9orf72 intron 1 levels [5],changes in the transcriptome [6],C9orf72 exon 1b RNA levels ([7]; 33 nmol ICV),all C9orf72 transcripts (exon 2-exon 3 junction) ([7]; 33 nmol ICV),"reduction of r(G4C2)exp-containing intron 1 mRNA ([7]; 33 nmol single ICV injection, compared to vehicle)",Nup98 abundance [8]
Cc1c2ccncc2c(C)c2c1[nH]c1ccc(OCCOCCOCCNCCOCCOCCOc3ccc4[nH]c5c(C)c6ccncc6c(C)c5c4c3)cc12 [Compound 3],~225 fold,900 nM,3600 nM,~200 fold,800 nM,~10 fold,400 nM,no toxicity,no effect,–,–,–,–,–
CCOC(=O)C1=C(Nc2ccccc2)S/C(=C\c2ccc(OCCOCCOCCOCCNC(=O)CCC(=O)N(CCOCCOCCOc3ccc4[nH]c5c(C)c6ccncc6c(C)c5c4c3)CCOCCOCCOc3ccc4[nH]c5c(C)c6ccncc6c(C)c5c4c3)c(O)c2)C1=O [Compound 7],–,–,–,–,–,–,–,–,–,no changes,not altered,reduced,44±22%,reversed the loss of Nup98
